Laboratory results published in patent US20260306644A1, “ANTIBODY RECRUITING MOLECULES FOR THE TREATMENT OF CORONAVIRUS DISEASE-19” (priority 2023, published 2026).
Read-outs that look alike come from different tables or passages of the source. Positions of bridges follow the written chain, without caps; N, C: chain ends. Non-standard residues stand in square brackets, D forms with d. Residues, ends and D or L forms follow the SMILES beside them. No end group written: not given here. ξ: configuration not given here. Tic = O=C(O)[C@@H]1Cc2ccccc2CN1; ξIle = CC[C@H](C)C(N)C(=O)O; Aib = CC(C)(N)C(=O)O

Molecular target: T1, SARS-CoV-2 Spike A (wild-type) (Severe acute respiratory syndrome coronavirus 2, UniProt P0DTC2)
T1 construct: purchased Meso Scale Diagnostics, LLC V-PLEX SARS-CoV-2 Panel 13 (ACE2) Kit / Panel 23 (ACE2) Kit
Assay: MSD ACE2 competition assay (inhibition of Spike binding with ACE2, ECL), A (wild-type)

[1] = IC50 Wild Type, Wild Type Spike

| Molecule | IC50 [1] | also measured |
| --- | --- | --- |
| CC[C@H](C)[C@H](NC(=O)[C@H](CC(C)C)NC(=O)[C@H](CC(=O)O)NC(=O)[C@H](CO)NC(=O)[C@@H](NC(=O)[C@H](CCCNC(=N)N)NC(=O)[C@H](CCSC)NC(=O)[C@@H]1CSSC[C@H](NC(=O)[C@H](CC(C)C)NC(=O)[C@H](CCCNC(=N)N)NC(=O)[C@H](CCSC)NC(=O)[C@@H](NC(=O)[C@H](CCC(=O)O)NC(=O)[C@H](Cc2ccc(O)cc2)NC(=O)[C@@H](NC(=O)[C@H](CCCCN)NC(=O)[C@H](CCC(N)=O)NC(=O)[C@H](CC(C)C)NC(=O)[C@@H](NC(=O)[C@H](Cc2c[nH]c3ccccc23)NC(=O)[C@H](CCC(=O)O)NC(=O)[C@H](CCCCN)NC(=O)[C@H](CC(=O)O)NC(C)=O)[C@@H](C)CC)[C@@H](C)CC)[C@@H](C)CC)C(=O)N[C@@H](CC(=O)O)C(=O)N[C@@H](CCC(=O)O)C(=O)N[C@@H](CC(C)C)C(=O)NCC(=O)N[C@@H](Cc2c[nH]cn2)C(=O)N[C@@H](C)C(=O)N[C@@H](CCC(=O)O)C(=O)N[C@@H](C)C(=O)N1)C(C)C)C(=O)N[C@@H](Cc1ccc(O)cc1)C(=O)N[C@@H](CCC(=O)O)C(=O)N[C@@H](Cc1ccccc1)C(=O)N[C@@H](CCSC)C(=O)N[C@@H](CCCCN)C(=O)N[C@@H](CCCCN)C(=O)NCC(N)=O [Compound 175] (Ac-DKEWILQKIYEIMRLCDELGHAEACMRVSDLIYEFMKKG-NH2; disulfide 16-25) |  | IC50 (read-out: IC50, Wild Type, Wild Type): 7.68 nM |
| {CH2CO}-ASYHLGELVW[Tic][Aib]C[dE]ILQKIYEIMRLLDELGHAEASMRVSDLIYEFMKK (thioether N-13) [Compound 131] | 31.5 nM |  |
| CC[C@H](C)[C@H](NC(=O)[C@H](CC(C)C)NC(=O)[C@H](CC(=O)O)NC(=O)[C@H](CO)NC(=O)[C@@H](NC(=O)[C@H](CCCNC(=N)N)NC(=O)[C@H](CCSC)NC(=O)[C@@H]1CSSC[C@H](NC(=O)[C@H](CC(C)C)NC(=O)[C@H](CCCNC(=N)N)NC(=O)[C@H](CCSC)NC(=O)[C@@H](NC(=O)[C@H](CCC(=O)O)NC(=O)[C@H](Cc2ccc(O)cc2)NC(=O)[C@@H](NC(=O)[C@H](CCCCN)NC(=O)[C@H](CCC(N)=O)NC(=O)[C@H](CC(C)C)NC(=O)[C@@H](NC(=O)[C@H](Cc2c[nH]c3ccccc23)NC(=O)[C@H](CCC(=O)O)NC(=O)[C@H](CCCCN)NC(=O)[C@@H](N)CC(=O)O)[C@@H](C)CC)[C@@H](C)CC)[C@@H](C)CC)C(=O)N[C@@H](CC(=O)O)C(=O)N[C@@H](CCC(=O)O)C(=O)N[C@@H](CC(C)C)C(=O)NCC(=O)N[C@@H](Cc2c[nH]cn2)C(=O)N[C@@H](C)C(=O)N[C@@H](CCC(=O)O)C(=O)N[C@@H](C)C(=O)N1)C(C)C)C(=O)N[C@@H](Cc1ccc(O)cc1)C(=O)N[C@@H](CCC(=O)O)C(=O)N[C@@H](Cc1ccccc1)C(=O)N[C@@H](CCSC)C(=O)N[C@@H](CCCCN)C(=O)N[C@@H](CCCCN)C(=O)NCC(N)=O [Compound 138] (H-DKEWILQKIYEIMRLCDELGHAEACMRVSDLIYEFMKKG-NH2; disulfide 16-25) |  | IC50 (IC50, Wild Type, Wild Type): 12.7 nM |
| CC[C@H](C)[C@H](NC(=O)[C@H](CCCCN)NC(=O)[C@H](CCC(N)=O)NC(C)=O)C(=O)N[C@@H](Cc1ccc(O)cc1)C(=O)N[C@@H](CCC(=O)O)C(=O)N[C@H](C(=O)N[C@H]1CSSC[C@@H](C(=O)N[C@@H](CO)C(=O)N[C@@H](CC(=O)O)C(=O)N[C@@H](CC(C)C)C(=O)N[C@H](C(=O)N[C@@H](Cc2ccc(O)cc2)C(=O)N[C@@H](CCC(=O)O)C(=O)N[C@@H](Cc2ccccc2)C(=O)N[C@@H](CCSC)C(=O)N[C@@H](CCCCN)C(=O)N[C@@H](CCCCN)C(=O)NCC(=O)O)[C@@H](C)CC)NC(=O)[C@H](CCCNC(=N)N)NC(=O)[C@H](CCSC)NC(=O)[C@H](CO)NC(=O)[C@H](C)NC(=O)[C@H](CCC(=O)O)NC(=O)[C@H](C)NC(=O)[C@H](Cc2cnc[nH]2)NC(=O)CNC(=O)[C@H](CC(C)C)NC(=O)[C@H](CCC(=O)O)NC(=O)[C@H](CC(=O)O)NC(=O)[C@H](CC(C)C)NC(=O)[C@H](CC(C)C)NC(=O)[C@H](CCCNC(=N)N)NC1=O)[C@@H](C)CC [Compound 133] (Ac-QKIYEICRLLDELGHAEASMRCSDLIYEFMKKG-OH; disulfide 7-22) | 1530 nM |  |
| CC[C@H](C)C(N)C(=O)N[C@@H](CC(C)C)C(=O)N[C@@H](CCC(N)=O)C(=O)N[C@@H](CCCCN)C(=O)N[C@H](C(=O)N[C@@H](Cc1ccc(O)cc1)C(=O)N[C@@H](CCC(=O)O)C(=O)N[C@H](C(=O)N[C@H]1CSSC[C@@H](C(=O)N[C@@H](CO)C(=O)N[C@@H](CC(=O)O)C(=O)N[C@@H](CC(C)C)C(=O)N[C@H](C(=O)N[C@@H](Cc2ccc(O)cc2)C(=O)N[C@@H](CCC(=O)O)C(=O)N[C@@H](Cc2ccccc2)C(=O)N[C@@H](CCSC)C(=O)N[C@@H](CCCCN)C(=O)N[C@@H](CCCCN)C(=O)NCC(=O)O)[C@@H](C)CC)NC(=O)[C@H](CCCNC(=N)N)NC(=O)[C@H](CCSC)NC(=O)[C@H](CO)NC(=O)[C@H](C)NC(=O)[C@H](CCC(=O)O)NC(=O)[C@H](C)NC(=O)[C@H](Cc2cnc[nH]2)NC(=O)CNC(=O)[C@H](CC(C)C)NC(=O)[C@H](CCC(=O)O)NC(=O)[C@H](CC(=O)O)NC(=O)[C@H](CC(C)C)NC(=O)[C@H](CC(C)C)NC(=O)[C@H](CCCNC(=N)N)NC1=O)[C@@H](C)CC)[C@@H](C)CC (stereo partly drawn) [Compound 134] (H-[ξIle]LQKIYEICRLLDELGHAEASMRCSDLIYEFMKKG-OH; disulfide 9-24) | 12.2 nM |  |
| CC[C@H](C)[C@H](NC(=O)[C@H](CC(C)C)NC(=O)[C@H](CC(=O)O)NC(=O)[C@H](CO)NC(=O)[C@@H]1CSSC[C@H](NC(=O)[C@@H](NC(=O)[C@H](CCC(=O)O)NC(=O)[C@H](Cc2ccc(O)cc2)NC(=O)[C@@H](NC(=O)[C@H](CCCCN)NC(=O)[C@H](CCC(N)=O)NC(=O)[C@H](CC(C)C)NC(=O)[C@@H](NC(=O)[C@H](Cc2c[nH]c3ccccc23)NC(=O)[C@H](CCC(=O)O)NC(=O)[C@H](CCCCN)NC(=O)[C@@H](N)CC(=O)O)[C@@H](C)CC)[C@@H](C)CC)[C@@H](C)CC)C(=O)N[C@@H](CCCNC(=N)N)C(=O)N[C@@H](CC(C)C)C(=O)N[C@@H](CC(C)C)C(=O)N[C@@H](CC(=O)O)C(=O)N[C@@H](CCC(=O)O)C(=O)N[C@@H](CC(C)C)C(=O)NCC(=O)N[C@@H](Cc2cnc[nH]2)C(=O)N[C@@H](C)C(=O)N[C@@H](CCC(=O)O)C(=O)N[C@@H](C)C(=O)N[C@@H](CO)C(=O)N[C@@H](CCSC)C(=O)N[C@@H](CCCNC(=N)N)C(=O)N1)C(=O)N[C@@H](Cc1ccc(O)cc1)C(=O)N[C@@H](CCC(=O)O)C(=O)N[C@@H](Cc1ccccc1)C(=O)N[C@@H](CCSC)C(=O)N[C@@H](CCCCN)C(=O)N[C@@H](CCCCN)C(=O)NCC(=O)O [Compound 136] (H-DKEWILQKIYEICRLLDELGHAEASMRCSDLIYEFMKKG-OH; disulfide 13-28) | 2.53 nM |  |
